Results reported in US20050202010A1, “Method of treatment and bioassay involving macrophage migration inhibitory factor (MIF) as cardiac-derived myocardial depressant factor” (priority 2003, published 2005).

Assays:
[1] = test system: LPS stimulated monocytes; conditions: cited from earlier work
[2] = test system: wild type mice challenged with LPS; assay: Tissue MIF release (western, immunohistochemistry) after LPS challenge, Enbrel pre-treatment; type: in vivo, mouse
Protocol: (§1) Louis, Mo.) and sacrificed by CO2 asphyxiation and subsequent cervical dislocation. Uninjected mice were used as controls. The two anti-MIF antibodies (III.D.9 and XIV.15.5, gift of Cytokine PharmaSciences, Inc., King of Prussia, Pa.) and their isotype control (HB-49, gift from Cytokine PharmaSciences, Inc.) were injected (100 μg in […]) intraperitoneally 90 minutes before the LPS challenge in the echocardiogram studies. […]
Protein Extraction and Western Blotting. […] Protein concentration was quantified using the Bio-Rad Protein Assay (Hercules, Calif.) and 50 μg of protein diluted in Laemmeli sample buffer (Bio-Rad) was added in a 1:1 ratio to a final volume of 10 μl and resolved on a 12% SDS polyacrylamide gel under reducing conditions. Prestained SDS-PAGE standards (Kaleidoscope Broad range, Bio-Rad Laboratories, Inc., Hercules, Calif.) were run (10 μl/lane) with each gel in order to determine the approximate M.W. of detected bands. […] The membrane was then developed for 5 minutes with 5 ml of ECL reagents (SuperSignal West Pico, Pierce, Rockford, Ill.), and the resulting chemiluminescent reaction was detected by Kodak X-OMAT AR Film (Eastman Kodak Co., Rochester, N.Y.). […]

[3] = test system: wild type mice challenged with LPS; assay: Serum MIF levels (ELISA) after LPS challenge, Enbrel pre-treatment; type: in vivo, mouse; conditions: wild type mice pre-treated (60 minutes) with Enbrel, LPS 4 mg/kg
Protocol: as §1, with “Mice were injected intraperitoneally with 4 mg/kg E. coli 0111:B4 LPS (Sigma-Aldrich Corp., St. Louis,” for “Louis,”
Determination of serum MIF levels. Sera from six mice were assayed for mouse MIF using the Chemikine™ Rat/Mouse macrophage inhibitory factor (MIF) EIA kit (Chemicon International, Inc., Temecula, Calif.) according to the manufacturer's instructions. Briefly, 5 μl of standards, samples, or reaction buffer (blank) were added to each well in duplicate. Diluted MIF-HRP antibody conjugate was added to each well (100 μl) and allowed to incubate for 2 hours at room temperature. Wells were then washed five times, and TMB substrate (100 μl) was allowed to incubate in the dark for 30 minutes at room temperature. The stop reagent was added to each well, gently mixed, and the ELISA was read on an ELISA plate reader (EL 312e Microplate Reader, Bio-Tek Instruments, Winooski, Vt.) at 450 nm (630 nm background) within 30 minutes of completion of the assay. […]

Compound | effect on MIF secretion [1] | other results
CC[C@@]1([C@@H]2O[C@@H]([C@H]3O[C@@](O)(CO)[C@H](C)C[C@@H]3C)C[C@@H]2C)CC[C@H]([C@]2(C)CC[C@]3(C[C@H](O)[C@@H](C)[C@@H]([C@@H](C)[C@@H](OC)[C@H](C)C(=O)O)O3)O2)O1 [monensin] | do not inhibit the secretion of MIF | –
CCCN(CCC)S(=O)(=O)c1ccc(C(=O)O)cc1 [probenicide] | MIF secretion did not occur | –
COc1ccc(Cl)cc1C(=O)NCCc1ccc(S(=O)(=O)NC(=O)NC2CCCCC2)cc1 [glyburide] | MIF secretion did not occur | –
C[C@H]1CCC/C=C/[C@@H]2C[C@H](O)C[C@H]2[C@H](O)/C=C/C(=O)O1 [brefelding A] | do not inhibit the secretion of MIF | –
Enbrel® | – | tissue release of MIF after LPS challenge ([2]; Enbrel given just immediately prior to or after LPS instead of 90 minutes prior (data not shown)): occurred sporatically; release of MIF from cardiac, liver and spleen tissue after LPS challenge ([2]; wild type mice pre-treated with Enbrel, western and immunohistochemistry): did not occur at any time; Maximum serum MIF levels [3]: ~2.3 fold baseline; time of maximum serum MIF levels [3]: 24 h
